{"source": "paper PMC8406319", "about": "“The dCache Chemoreceptor TlpA of Helicobacter pylori Binds Multiple Attractant and Antagonistic Ligands via Distinct Sites” (mBio, 2021)", "system": "TlpALBD point mutants", "test": "SPR binding affinity of TlpALBD point mutants relative to WT", "parameters": "species or system Helicobacter pylori SS1", "conditions": "Y228A, Y252A, D254A vs WT", "excerpt": "The periplasmic portion of TlpA (TlpALBD), amino acids 28 to 299, from Helicobacter pylori SS1 was cloned into a pBH4 expression vector (pBH4_TlpALBD) to generate an N-terminal 6×His-tagged construct, with a tobacco etch virus (TEV) protease site, under the control of isopropyl-β-D-thiogalactopyranoside (IPTG) ([19]). […] TlpALBD and all point mutants were purified as described previously by Sweeney et al. ([19]).\nPurified TlpALBD was immobilized on a CM5 series S sensor chip, and binding affinities were tested using a Biacore S200 instrument (GE Healthcare) as described previously ([39], [57], [59]). Briefly, proteins were captured using an amine-coupling kit (GE Healthcare), in which the carboxylmethyl dextran matrix of the sensor chip was activated by the injection of a mixture of 0.2 M 1-ethyl-3-[(3-dimethylamino)propyl]-carbodiimide (EDC) and 0.05 M N-hydroxysuccinimide (NHS), followed by the neutralization of the remaining unreacted NHS ester groups by the injection of 1 M ethanolamine-HCl (pH 8.0). Purified TlpALBD was diluted in 10 mM sodium acetate buffer (pH 4.5) at a concentration of 100 μg/ml for immobilization to the chip. A total of 8,400 response units (RU) of TlpALBD were captured on flow cell 2. […] The data sets were analyzed using Biacore S200 evaluation software 2.0.2; sensorgrams were double-reference subtracted.", "note": "Structures can show the parent of a compound that is named as a salt."}
{"smiles": "N[C@H]1C(O)O[C@H](CO)[C@@H](O)[C@@H]1O", "note": "(stereo partly drawn) [Glucosamine, D(+)-glucosamine hydrochloride]", "values": [{"measurement": "Effect of proximal pocket residue mutations on binding affinity", "result": "No proximal pocket residues affected the binding affinity"}]}
